Data as given in ChEMBL document CHEMBL6182828, “Medicinal chemistry-based perspectives on thiophene and its derivatives: exploring structural insights to discover plausible druggable leads” (RSC Med Chem, 2025).
pIC50: −log10 of the molar value. ≈ marks a conversion by molar mass, not a printed value.

Tests used:
NCI-H460 = experiment: Growth inhibition of human NCI-H460 cells incubated for 48 hrs by SRB assay; format: functional
MCF7 [1] = experiment: Growth inhibition of human MCF7 cells incubated for 48 hrs by SRB assay; format: functional
SF-268 = experiment: Growth inhibition of human SF-268 cells incubated for 48 hrs by SRB assay; format: functional
A549 = experiment: cells; details: Homo sapiens
Description: Cytotoxicity against human A549 cells assessed as reduction in cell viability by MTT assay

MDA-MB-231 = experiment: cells; details: Homo sapiens
Description: Cytotoxicity against human MDA-MB-231 cells assessed as reduction in cell viability by MTT assay

PC-3 = experiment: cells; details: Homo sapiens
Description: Cytotoxicity against human PC-3 cells assessed as reduction in cell viability by MTT assay

Glucagon receptor [2] = target: T1, Glucagon receptor (Homo sapiens, UniProt P47871); experiment: Antagonist activity at wild type human GCGR
Glucagon receptor [3] = target: T1, Glucagon receptor; experiment: Antagonist activity at wild type human GCGR transfected in HEK293T cells assessed as intracellular cAMP accumulation incubated for 60 mins by FRET assay; format: functional, cell-based
[4] = target: Amine oxidase [flavin-containing] B (Homo sapiens, UniProt P27338); experiment: Inhibition of human MAO-B measured after 25 mins by Amplex Red reagent based fluorescence analysis
[5] = Antioxidant activity assessed as DPPH radical scavenging activity; format: functional
[6] = Half life in po dosed human; format: ADME, organism-based; details: in vivo
[7] = target: Epidermal growth factor receptor (Homo sapiens, UniProt P00533); experiment: Inhibition of EGFR (unknown origin)
[8] = target: Vascular endothelial growth factor receptor 2 (Homo sapiens, UniProt P35968); experiment: Inhibition of VEGFR2 (unknown origin)
[9] = Antioxidant activity assessed as ROS scavenging activity relative to control; format: functional; details: dose or concentration not given here
[10] = Inhibition of Alpha-amylase (unknown origin); parameters: species or system Homo sapiens
Alpha glucosidase = Alpha glucosidase (Homo sapiens, UniProt O43451+P10253+P14410+Q2M2H8); experiment: Inhibition of Alpha glucosidase (unknown origin); format: protein assay
[11] = target: T2, Polyunsaturated fatty acid 5-lipoxygenase (Homo sapiens, UniProt P09917); experiment: Inhibition of 5-LOX (unknown origin)
T2 sequence (P09917 whole entry): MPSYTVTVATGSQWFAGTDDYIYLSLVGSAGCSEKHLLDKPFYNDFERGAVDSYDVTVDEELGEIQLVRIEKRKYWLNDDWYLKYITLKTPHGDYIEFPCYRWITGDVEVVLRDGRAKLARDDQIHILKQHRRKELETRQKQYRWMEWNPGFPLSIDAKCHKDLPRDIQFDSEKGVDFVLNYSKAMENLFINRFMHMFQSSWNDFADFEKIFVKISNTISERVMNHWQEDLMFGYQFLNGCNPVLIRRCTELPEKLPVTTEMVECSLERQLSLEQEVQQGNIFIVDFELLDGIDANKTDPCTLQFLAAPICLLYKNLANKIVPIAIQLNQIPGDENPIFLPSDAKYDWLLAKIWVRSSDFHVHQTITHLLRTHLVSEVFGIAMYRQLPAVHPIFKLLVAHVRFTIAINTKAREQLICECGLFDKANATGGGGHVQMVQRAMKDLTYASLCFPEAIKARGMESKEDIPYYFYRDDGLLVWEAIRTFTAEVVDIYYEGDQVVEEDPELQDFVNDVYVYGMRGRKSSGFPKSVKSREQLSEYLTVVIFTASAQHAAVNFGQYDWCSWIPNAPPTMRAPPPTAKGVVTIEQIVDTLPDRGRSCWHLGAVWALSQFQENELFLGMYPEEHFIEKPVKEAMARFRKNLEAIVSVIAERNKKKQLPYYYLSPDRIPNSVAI

[12] = Antioxidant activity assessed as DPPH radical scavenging activity at 10 uM incubated for 30 mins by absorbance based assay relative to control; format: functional
[13] = Elimination half life in human at 5 mg/kg, po; format: ADME, organism-based; details: in vivo, read-out: LambdaZ (converted)
DLD-1 = experiment: Cytotoxicity against human DLD-1 cells assessed as reduction in cell growth incubated for 24 hrs by SRB assay; format: functional, cell-based; details: DLD-1, 24 h
NUGC-3 = experiment: Cytotoxicity against human NUGC-3 cells assessed as reduction in cell growth incubated for 24 hrs by SRB assay; format: functional, cell-based; details: NUGC-3, 24 h
MCF7 [14] = experiment: Cytotoxicity against human MCF7 cells assessed as reduction in cell growth incubated for 24 hrs by SRB assay; format: functional, cell-based; details: MCF7, 24 h
[15] = Cytotoxicity against human WI-38 cells assessed as reduction in cell growth incubated for 24 hrs by SRB assay; format: toxicity, cell-based
HepG2 = experiment: Cytotoxicity against human HepG2 cells assessed as reduction in cell growth incubated for 24 hrs by SRB assay; format: functional, cell-based; details: HepG2, 24 h
HONE1 cell line = experiment: Cytotoxicity against human HONE1 cell line assessed as reduction in cell growth incubated for 24 hrs by SRB assay; format: toxicity, cell-based; details: HONE1, 24 h
HA22T cell line = experiment: Cytotoxicity against human HA22T cell line assessed as reduction in cell growth incubated for 24 hrs by SRB assay; format: functional, cell-based
Arthroderma pannicola = experiment: Antifungal activity against Arthroderma pannicola assessed as diameter of zone of inhibition; format: functional
Candida albicans = experiment: Antifungal activity against Candida albicans assessed as zone of inhibition; format: functional
MCF7 [16] = experiment: Antiproliferative activity against human MCF7 cells; format: functional, cell-based; details: mcf7
[17] = Inhibition of urease (unknown origin)
[18] = target: Amine oxidase [flavin-containing] A (Homo sapiens, UniProt P21397); experiment: Inhibition of human MAO-A measured after 25 mins by Amplex Red reagent based fluorescence analysis
Sequence of Amine oxidase [flavin-containing] A (P21397 whole entry): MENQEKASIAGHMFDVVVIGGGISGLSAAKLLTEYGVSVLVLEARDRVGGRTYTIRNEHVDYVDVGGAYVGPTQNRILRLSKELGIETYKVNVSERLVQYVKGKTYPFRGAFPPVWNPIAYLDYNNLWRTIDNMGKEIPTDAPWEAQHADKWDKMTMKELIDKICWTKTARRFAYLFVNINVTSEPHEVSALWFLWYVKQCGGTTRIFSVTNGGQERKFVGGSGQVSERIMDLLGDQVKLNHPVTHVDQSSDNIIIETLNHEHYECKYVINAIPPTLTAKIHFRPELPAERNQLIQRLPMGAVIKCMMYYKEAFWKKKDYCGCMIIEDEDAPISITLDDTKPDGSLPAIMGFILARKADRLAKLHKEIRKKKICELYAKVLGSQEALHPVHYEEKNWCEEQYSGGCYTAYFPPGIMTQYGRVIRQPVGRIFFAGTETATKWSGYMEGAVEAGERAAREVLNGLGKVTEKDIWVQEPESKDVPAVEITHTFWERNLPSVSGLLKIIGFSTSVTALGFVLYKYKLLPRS

Sequence of Vascular endothelial growth factor receptor 2 (P35968 whole entry): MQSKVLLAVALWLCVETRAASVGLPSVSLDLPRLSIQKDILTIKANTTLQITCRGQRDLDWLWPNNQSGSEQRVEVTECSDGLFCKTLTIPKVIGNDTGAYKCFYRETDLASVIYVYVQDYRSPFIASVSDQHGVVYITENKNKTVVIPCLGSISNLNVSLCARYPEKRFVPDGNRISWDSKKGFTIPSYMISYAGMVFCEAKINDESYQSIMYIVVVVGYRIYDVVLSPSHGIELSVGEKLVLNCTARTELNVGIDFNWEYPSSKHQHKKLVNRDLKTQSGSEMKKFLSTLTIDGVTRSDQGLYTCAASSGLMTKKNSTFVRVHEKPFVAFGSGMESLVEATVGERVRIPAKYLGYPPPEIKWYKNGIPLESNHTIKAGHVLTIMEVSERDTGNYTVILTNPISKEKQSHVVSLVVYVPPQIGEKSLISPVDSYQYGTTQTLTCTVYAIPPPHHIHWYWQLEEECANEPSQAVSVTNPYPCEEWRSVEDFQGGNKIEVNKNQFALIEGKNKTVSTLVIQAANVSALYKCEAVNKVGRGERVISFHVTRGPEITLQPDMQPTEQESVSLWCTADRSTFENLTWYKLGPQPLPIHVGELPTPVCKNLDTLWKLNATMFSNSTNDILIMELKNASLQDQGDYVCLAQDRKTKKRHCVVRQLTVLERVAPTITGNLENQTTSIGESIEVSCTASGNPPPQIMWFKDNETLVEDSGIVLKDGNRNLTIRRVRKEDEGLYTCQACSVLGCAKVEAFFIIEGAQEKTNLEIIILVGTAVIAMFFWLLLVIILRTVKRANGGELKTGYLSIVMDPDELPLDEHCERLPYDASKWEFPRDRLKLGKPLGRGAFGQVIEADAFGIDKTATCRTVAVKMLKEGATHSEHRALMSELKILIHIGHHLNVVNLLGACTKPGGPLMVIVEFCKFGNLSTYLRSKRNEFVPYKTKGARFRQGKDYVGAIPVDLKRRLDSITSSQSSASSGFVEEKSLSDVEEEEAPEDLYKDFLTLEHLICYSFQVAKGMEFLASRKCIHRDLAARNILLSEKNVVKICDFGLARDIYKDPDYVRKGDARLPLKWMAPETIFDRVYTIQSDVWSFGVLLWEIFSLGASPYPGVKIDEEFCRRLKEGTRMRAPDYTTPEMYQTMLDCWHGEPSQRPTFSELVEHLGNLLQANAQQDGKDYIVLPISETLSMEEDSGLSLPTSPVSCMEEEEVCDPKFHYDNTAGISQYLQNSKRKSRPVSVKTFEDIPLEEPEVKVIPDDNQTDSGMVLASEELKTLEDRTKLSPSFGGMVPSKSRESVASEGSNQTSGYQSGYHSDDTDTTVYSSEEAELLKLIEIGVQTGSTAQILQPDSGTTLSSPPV
T1 sequence (P47871 whole entry): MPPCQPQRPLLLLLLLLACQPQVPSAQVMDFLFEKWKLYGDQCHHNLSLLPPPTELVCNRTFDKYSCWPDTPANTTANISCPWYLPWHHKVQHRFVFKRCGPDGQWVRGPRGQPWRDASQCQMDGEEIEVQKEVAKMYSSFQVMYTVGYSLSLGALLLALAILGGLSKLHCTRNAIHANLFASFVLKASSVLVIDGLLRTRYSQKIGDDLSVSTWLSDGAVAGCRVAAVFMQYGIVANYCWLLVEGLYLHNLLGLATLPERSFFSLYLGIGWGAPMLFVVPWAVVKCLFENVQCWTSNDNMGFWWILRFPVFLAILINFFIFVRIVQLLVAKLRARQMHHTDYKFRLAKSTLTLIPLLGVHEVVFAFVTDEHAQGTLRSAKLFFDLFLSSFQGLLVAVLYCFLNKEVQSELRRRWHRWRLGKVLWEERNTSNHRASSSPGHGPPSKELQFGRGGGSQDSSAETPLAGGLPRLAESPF
Sequence of Epidermal growth factor receptor (P00533 whole entry): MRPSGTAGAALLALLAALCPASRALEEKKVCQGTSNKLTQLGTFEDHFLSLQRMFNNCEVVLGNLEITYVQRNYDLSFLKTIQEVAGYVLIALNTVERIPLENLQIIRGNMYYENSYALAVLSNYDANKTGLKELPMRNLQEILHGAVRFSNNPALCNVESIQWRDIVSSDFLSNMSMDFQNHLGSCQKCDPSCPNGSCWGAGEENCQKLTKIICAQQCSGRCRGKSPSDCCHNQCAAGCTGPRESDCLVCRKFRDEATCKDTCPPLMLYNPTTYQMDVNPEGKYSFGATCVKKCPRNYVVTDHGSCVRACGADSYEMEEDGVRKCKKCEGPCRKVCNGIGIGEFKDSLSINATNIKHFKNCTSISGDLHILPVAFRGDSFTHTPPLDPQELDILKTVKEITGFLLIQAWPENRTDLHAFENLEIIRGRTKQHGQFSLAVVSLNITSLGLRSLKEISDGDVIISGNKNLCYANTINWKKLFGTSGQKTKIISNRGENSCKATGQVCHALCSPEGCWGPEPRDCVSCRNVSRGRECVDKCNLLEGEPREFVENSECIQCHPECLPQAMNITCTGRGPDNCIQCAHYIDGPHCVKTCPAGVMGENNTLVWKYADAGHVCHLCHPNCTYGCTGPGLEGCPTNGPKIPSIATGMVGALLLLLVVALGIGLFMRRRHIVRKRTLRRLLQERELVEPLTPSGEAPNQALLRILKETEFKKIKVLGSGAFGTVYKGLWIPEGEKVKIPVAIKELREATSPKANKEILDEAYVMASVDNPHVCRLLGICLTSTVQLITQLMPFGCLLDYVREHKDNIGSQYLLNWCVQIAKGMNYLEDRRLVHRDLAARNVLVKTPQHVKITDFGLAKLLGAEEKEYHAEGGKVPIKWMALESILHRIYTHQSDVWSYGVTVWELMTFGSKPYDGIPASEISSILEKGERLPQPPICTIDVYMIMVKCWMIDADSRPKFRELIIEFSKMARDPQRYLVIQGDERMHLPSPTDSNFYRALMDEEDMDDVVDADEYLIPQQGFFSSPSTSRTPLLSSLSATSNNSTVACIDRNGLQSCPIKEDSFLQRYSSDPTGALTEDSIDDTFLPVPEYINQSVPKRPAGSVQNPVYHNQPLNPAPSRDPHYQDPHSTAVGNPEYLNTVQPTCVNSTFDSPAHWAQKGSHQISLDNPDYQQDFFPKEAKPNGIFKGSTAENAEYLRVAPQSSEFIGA
Sequence of Amine oxidase [flavin-containing] B (P27338 whole entry): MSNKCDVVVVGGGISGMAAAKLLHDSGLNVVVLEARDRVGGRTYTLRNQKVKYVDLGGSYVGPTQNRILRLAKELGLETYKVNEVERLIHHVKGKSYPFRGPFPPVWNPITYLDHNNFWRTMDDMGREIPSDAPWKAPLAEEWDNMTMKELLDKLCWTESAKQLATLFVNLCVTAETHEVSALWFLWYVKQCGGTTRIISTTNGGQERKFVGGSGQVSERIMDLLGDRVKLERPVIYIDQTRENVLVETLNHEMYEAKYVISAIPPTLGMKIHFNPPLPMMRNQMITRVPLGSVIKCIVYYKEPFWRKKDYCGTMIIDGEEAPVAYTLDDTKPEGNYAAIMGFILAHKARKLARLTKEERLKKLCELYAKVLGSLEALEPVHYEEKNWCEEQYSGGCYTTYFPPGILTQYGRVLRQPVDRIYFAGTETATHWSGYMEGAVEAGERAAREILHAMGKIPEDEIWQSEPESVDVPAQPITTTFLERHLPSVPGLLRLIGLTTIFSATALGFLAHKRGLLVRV

## CCOC(=O)c1cc(C(=O)N/N=C(/C)[C@H]2CC[C@H]3[C@@H]4CC=C5C[C@@H](O)CC[C@]5(C)[C@H]4CC[C@]23C)c(Nc2ccccc2)s1
NCI-H460
  GI50: 10 nM
MCF7 [1]
  GI50: 10 nM
SF-268
  GI50: 30 nM

## COc1cccc2c1C(=O)c1c(O)c3c(c(O)c1C2=O)C[C@@](O)(C(=O)CO)C[C@@H]3O[C@H]1C[C@H](N)[C@H](O)[C@H](C)O1 [DOXORUBICIN]
A549
  pIC50: 6.15
MDA-MB-231
  pIC50: 6.01
PC-3
  pIC50: 6.15

## Cc1cc(Cl)ccc1-c1ccc(NC(=O)C(Cc2ccc(C(=O)NCCS(=O)(=O)O)s2)c2ccc(-c3ccc(C(C)(C)C)cc3)cc2)cc1 (stereo not given)
Glucagon receptor [2]
  pIC50: 5.36
Glucagon receptor [3]
  pIC50: 4.84

## C/C(=N\N=C1/CS(=O)(=O)N(C)c2ccccc21)c1ccc(Br)s1
[4]
  pIC50: 5.99

## COc1cccc(NC(=O)Cn2cc(CN3CNc4sccc4C3=O)nn2)c1
[5]
  IC50: 30.16 µg/mL (≈ 75.7 µM)

## CNCC[C@H](Oc1cccc2ccccc12)c1cccs1 [DULOXETINE]
[6]
  half-life: 12 h

## Cc1c(NC(=O)Nc2ccc(OC(F)(F)F)cc2)sc2ccccc12
[7]
  pIC50: 7.33
[8]
  pIC50: 7.95

## Cc1ccc(NCc2ccc(CNc3ccc(C)cc3)o2)cc1
A549
  pIC50: 6.17
MDA-MB-231
  pIC50: 6.06
PC-3
  pIC50: 5.99

## Cc1nc2ccc(CN(C)c3ccc(C(=O)N[C@@H](CCC(=O)O)C(=O)O)s3)cc2c(=O)[nH]1 [RALTITREXED]
[6]
  half-life: 192 h

## O=C(O[C@H]1C[N+]2(CCCOc3ccccc3)CCC1CC2)C(O)(c1cccs1)c1cccs1
[6]
  half-life: 24 h

## COC1=C(Nc2sc3c(c2C(N)=O)CCCC3)C(=O)c2ccccc2C1=O
[9]
  inhibition: 96%

## Cc1ccsc1C(=CCCN1CCC[C@@H](C(=O)O)C1)c1sccc1C [TIAGABINE]
[6]
  half-life: 7 h

## COc1ccc(CNC(=O)Nc2sc3c(c2C#N)CCCC3)c(OC)c1
[10]
  pIC50: 4.52
Alpha glucosidase
  IC50: 590 nM

## COc1ccc(/C=C2\SC(=S)N(NC(=O)c3sc4ccccc4c3Cl)C2=O)cc1OC
[11]
  pIC50: 5.63

## CC(=O)c1ccc(NC(=O)c2sc(Nc3ccccc3)c(C(=O)Nc3ccccc3)c2N)cc1
[12]
  inhibition: 62%

## CC(=O)Oc1cc2c(s1)CCN(C(C(=O)C1CC1)c1ccccc1F)C2 (stereo not given)
[13]
  half-life: 7.4 h

## N#Cc1c(N)sc(C(=O)NC2=NN=C(O)/C2=C(\C=C\c2ccccc2)c2ccccc2)c1N
[7]
  pIC50: 6.49
[8]
  pIC50: 6.49

## N#CC(C#N)=NNc1sc2c(c1C1=NC(=O)C(Cc3ccc(Cl)cc3)S1)CCCC2 (stereo not given)
DLD-1
  pIC50: 7.23
NUGC-3
  pIC50: 7.23
MCF7 [14]
  pIC50: 7.23
[15]
  IC50 at 24 h: 59 nM
HepG2
  pIC50: 7.23
HONE1 cell line
  pIC50: 7.23
HA22T cell line
  pIC50: 7.23

## O=c1c2ccccc2nc(-c2sc3ccccc3c2Cl)n1-c1ccc(F)cc1
Arthroderma pannicola
  inhibition zone (IZ): 14 mm
Candida albicans
  inhibition zone (IZ): 14 mm

## COc1cc2ncn(-c3cc(OCc4ccccc4C(F)(F)F)c(C(N)=O)s3)c2cc1OC [GW843682X]
[11]
  pIC50: 5.00

## Oc1ccc(Nc2nnnc3sc4c(c23)CCC4)cc1
MCF7 [16]
  IC50: 38730 nM

## Cc1ccc2c(c1)n(CN1CCN(c3ccccc3)CC1)c(=O)n2CN1CCN(c2ccccc2)CC1
[17]
  pIC50: 6.96

## N#Cc1c(-n2c(N)c(C#N)c(N)c(/N=N/c3ccccc3)c2=O)sc2c1CCCC2
NCI-H460
  GI50: 8300 nM
MCF7 [1]
  GI50: 2000 nM
SF-268
  GI50: 4000 nM

## COc1ccc2c3ccnc(C)c3n(CC3CC(c4cccs4)=NO3)c2c1 (stereo not given)
[11]
  pIC50: 4.53

## C/C(=N\N=C1/CS(=O)(=O)N(C)c2ccccc21)c1sccc1Cl
[18]
  pIC50: 5.98

## O=C(Nc1nc(-c2cc(Cl)cs2)c(N2CCN(C3CCCCC3)CC2)s1)c1cnc(N2CCC(C(=O)O)CC2)c(Cl)c1 [AVATROMBOPAG]
[6]
  half-life: 19 h
